Laboratory results: ChEMBL document CHEMBL1130871, “Korundamine A, a novel HIV-inhibitory and antimalarial "hybrid" naphthylisoquinoline alkaloid heterodimer from Ancistrocladus korupensis” (Bioorg Med Chem Lett, 1998)
pEC50: −log10 of the molar value. Converted amounts (≈) assume the structure as drawn.

How the values were obtained:
Plasmodium falciparum = experiment: In vitro antimalarial activity against Plasmodium falciparum; format: functional, organism-based
Homo sapiens [1] = organism: Homo sapiens; experiment: Compound was tested for anti HIV-1 activity against MT2/A17 cell/virus strain; format: functional, organism-based
Homo sapiens [2] = organism: Homo sapiens; experiment: Compound was tested for anti HIV-1 activity against MT2/G9106 cell/virus strain; format: functional, organism-based
CCRF-CEM = experiment: Compound was tested for anti HIV-1 activity against CEM-SS/OC100 cell/virus strain; format: functional, cell-based; details: Homo sapiens
[3] = system: Human immunodeficiency virus 1; experiment: Compound was tested for inhibition of cytopathic effects against human immunodeficiency virus type 1 (HIV-1); format: functional, organism-based

IC50 (Plasmodium falciparum): 1.1 µg/mL (≈ 1.43 µM)
pEC50 (Homo sapiens [1]): 5.00
pEC50 (Homo sapiens [2]): 5.22
pEC50 (CCRF-CEM): 5.10
pEC50 [3]: 5.70
SMILES: COc1c2c(cc(O)c1-c1cc(-c3cc(-c4c(O)cc(O)c5c4C[C@@H](C)N[C@@H]5C)c4cc(C)cc(OC)c4c3O)c(O)c3c(OC)cc(C)cc13)C[C@@H](C)N=C2C
